In brackets after ≈: the same amount, converted by molar mass. Entries after “also recorded” stand apart in the source; their conditions may differ.

This is an account of results in article PMC8304634, “Structure–Activity Relationships of the Antimalarial Agent Artemisinin 10. Synthesis and Antimalarial Activity of Enantiomers of rac-5β-Hydroxy-D-Secoartemisinin and Analogs: Implications Regarding the Mechanism of Action” (Molecules, 2021).

One data set relates to P. falciparum. Nature of the data set: In vitro antimalarial pLDH assay, clone not distinguished in the statement. It is filed as cell-based. The note with it: for in vitro antimalarial activity (in words): W-2 and D-6 strains. As for the experimental part:
(§1) Artemisinin 1 and the analogs rac-2, 2a, 2b, 9–16, diastereomers 19a, 19b, 22 and 29 were tested in vitro in parasitized whole blood against drug-resistant strains of P. falciparum parasite clones D-6 and W-2 at The National Center for Natural Products Research (NCNPR) at The University of Mississippi using the parasite lactate dehydrogenase (pLDH) assay developed by Makler (Table 3). This assay is based on the ability of the pLDH enzyme of P. falciparum to reduce APAD to APADH. This reaction is carried out at a slow rate by human red blood cell LDH.
(§2) The formation of APADH was monitored colorimetrically by the addition of nitroblue tetrazolium which was reduced to a blue formazan product. Two P. falciparum malaria parasite clones, designated as Indochina (W-2) and Sierra Leone (D-6), were used in susceptibility testing. The W-2 clone is chloroquine-resistant and mefloquine-sensitive, while the D-6 clone is chloroquine-sensitive but mefloquine resistant. The relative potency values for these analogs were derived from the IC50 value for artemisinin (1) divided by their IC50 values (Table 3) and then adjusted for molecular weight differences by multiplication of the ratio of the molecular weight of the analog divided by the molecular weight of artemisinin. This approach to reporting activity was based in part on the fact that the analogs were tested on different occasions in which the IC50 for the control, artemisinin, had varied anywhere from 5 to 7 ng/mL based on parasitemia levels and clone.
(§3) Synthesized compounds were tested in vitro against two P. falciparum malaria parasite clones, designated as Indochina (W-2) and Sierra Leone (D-6). The W-2 clone is chloroquine resistant whereas the D-6 clone is a chloroquine-sensitive strain.
(§4) A suspension of red blood cells infected with W-2 or D-6 strain of P. falciparum that contains 2% parasitemia and 2% hematocrit in RPMI 1640 medium supplemented with 10% human serum and 60 µg/mL amikacin was dispensed into the wells of a 96-well flat-bottomed microtiter plate containing 10 µL of serially diluted test samples. The plates were incubated at 37 °C in an environment of 90% N2, 5% O2, and 5% CO2 for 72 h. Next, 100 µL aliquots of the Malstat reagent were added to each well of a new 96-well microtiter plate. The cultures were resuspended from the assay plate by mixing each well up and down several times. A total of 20 µL from each well of the resuspended culture was removed and added to the plate containing the Malstat reagent and the plate was incubated at r.t., for 30 min. Further, to each well, 20 µL of a NBT/PES (1:1) solution (2 and 0.1 mg/mL, respectively) were added. The plate was incubated in the dark for 1 h. The reaction was terminated by the addition of 100 µL of a 5% acetic acid solution. The […] plate was then read at 650 nm. Artemisinin and chloroquine were included in each assay as antimalarial drug controls. The IC50 values were computed from the dose–response curves using XLfit 4.2.

In data set [1] the test system is P. falciparum Indochina (W-2) clone. Briefly: In vitro antimalarial pLDH assay, W-2 clone. The data set is classed as cell-based. The following applies: for IC50: Plasmodium falciparum, Erythrocyte, read-out: IC50 (ng/mL) W-2; for IC50 / IC50 (ng/mL) W-2: 72 h, parasitized red blood cells, pLDH readout, NA = Not active. As for the experimental part: as §1, §2, §3, §4

Data set [2] relates to P. falciparum Sierra Leone (D-6) clone. Briefly: In vitro antimalarial pLDH assay, D-6 clone. The note with it: for IC50: Plasmodium falciparum, Erythrocyte, read-out: IC50 (ng/mL) D-6; for IC50 / IC50 (ng/mL) D-6: 72 h, parasitized red blood cells, pLDH readout, NA = Not active. The data set is classed as cell-based. As for the experimental part:
as §1, §2, §3, §4

[3] abbreviates: 100 × [IC50 (artemisinin, control value)/IC50 (analog)] MW (analog)/MW(artemisinin).
Setting [4] is: as quoted in the Discussion, relative to artemisinin.

Consider `CC12CC(=O)C3CCCCC3(CO1)OO2` (stereo not shown) [Compound 15, 3-Methylhexahydro-1H-3,9a-epidioxybenzo[c]oxepin-5(5aH)-one], for which the “in vitro antimalarial activity (in words)” value in the data set on P. falciparum is recorded as “substantially improved over the corresponding alcohol 2”. Also, the “times more potent than the alcohol rac-2 or 2a” value in the data set with P. falciparum (fold potency versus rac-2 or 2a) was 55–77. Moreover, the “Relative Activity W-2” value is listed as 32.72 in data set [1] (setting [3]) and 32.72% in data set [1] (setting [4]). Further, the IC50 stood at 23.3 ng/mL (≈ 0.11 µM) in data set [1] and 31.8 ng/mL (≈ 0.15 µM) in data set [2]. The “Relative Activity D-6” value was 33.30 in data set [2] (setting [3]) and 33.30% in data set [2] (setting [4]).

Turning to `CC12CC(OC(=O)c3ccc(F)cc3)C3CCCCC3(CO1)OO2` (stereo not shown) [Compound 11, 3-Methyloctahydro-1H-3,9a-epidioxybenzo[c]oxepin-5-yl 4-fluorobenzoate], the melting point – broadly, the temperature of the solid-liquid transition – fell in the range of 88 to 90 °C. Besides, in data set [1] (setting [3]), the “Relative Activity W-2” value is reported as 12.41. For the same molecule, the IC50 in data set [1] is 97.5 ng/mL (≈ 0.29 µM). Besides, the “Relative Activity W-2” value in data set [1] (setting [4]) is listed as 12.41%. Also, in data set [2] (setting [3]), the “Relative Activity D-6” value worked out at 20.81. Moreover, the IC50 in data set [2] worked out at 80.7 ng/mL (≈ 0.24 µM). Besides, the “Relative Activity D-6” value in data set [2] (setting [4]) came to 20.81%.

Regarding `CC12CC(O)C3CCCCC3(CO1)OO2` (racemic) [rac-2, 3-Methyloctahydro-1h-3,9a-epidioxybenzo[c]oxepin-5-ol], the melting point is 109 to 111 °C. The “Relative Activity W-2” value in data set [1] (setting [3]) was found to be 0.43. In addition, in data set [1], the IC50 was found to be 1780 ng/mL (≈ 8.3 µM). Also, the “Relative Activity W-2” value in data set [1] (setting [4]) was 0.43%. For the same molecule, the IC50 in data set [2] is 1720 ng/mL (≈ 8.01 µM). Further, the “Relative Activity D-6” value in data set [2] (setting [4]) stood at 0.62%.

`C[C@]12C[C@H](O)[C@@H]3CCCC[C@@]3(CO1)OO2` [Compound 2b, (3S,5S,5aS,9aR)-3-methyloctahydro-1H-3,9a-epidioxybenzo[c]oxepin-5-ol]: the melting point is 107 to 109 °C. For the same molecule, the “in vitro antimalarial activity (in words)” value in the data set with P. falciparum is “devoid of antimalarial activity”.

For `C[C@@]12C[C@@H](O)[C@H]3CCCC[C@]3(CO1)OO2` [Compound 2a, (3R,5R,5aR,9aS)-3-methyloctahydro-1H-3,9a-epidioxybenzo[c]oxepin-5-ol], the melting point fell in the range of 108 to 110 °C. Besides, the “in vitro antimalarial activity (in words)” value in the data set on P. falciparum was “Antimalarial activity resided with only the artemisinin-like enantiomer; also recorded: the only alcohol of the pair with antimalarial activity”. In addition, the “Relative Activity W-2” value in data set [1] (setting [3]) is 0.44. For the same molecule, in data set [1], the IC50 worked out at 885 ng/mL (≈ 4.13 µM). Besides, the “Relative Activity W-2” value in data set [1] (setting [4]) is reported as 0.44%. Further, the “Relative Activity D-6” value in data set [2] (setting [3]) is given as 0.43. For the same molecule, in data set [2], the IC50 is 1260 ng/mL (≈ 5.86 µM). Further, the “Relative Activity D-6” value in data set [2] (setting [4]) is 0.43%.

Consider `CC(=O)OCC1(O)CCCCC1C(C)=O` (stereo not shown) [Compound 29, (2-Acetyl-1-hydroxycyclohexyl)methyl acetate], for which, in the data set with P. falciparum, the “in vitro antimalarial activity (in words)” value is “Neither 22 nor 29 possessed in vitro antimalarial activity; also recorded: no antimalarial activity”.

For `CC12CC(OC(=O)C=Cc3ccccc3)C3CCCCC3(CO1)OO2` (stereo not shown) [Compound 13, 3-Methyloctahydro-1H-3,9a-epidioxybenzo[c]oxepin-5-yl cinnamate], the “Relative Activity W-2” value in data set [1] (setting [3]) was 8.37. Besides, the IC50 in data set [1] worked out at 148 ng/mL (≈ 0.43 µM); in data set [2] it was 131 ng/mL (≈ 0.38 µM). Also, the “Relative Activity D-6” value in data set [2] (setting [3]) is on record as 13.14.

`C[C@@H]1CC[C@H]2[C@@H](C)C(=O)O[C@@H]3O[C@@]4(C)CC[C@@H]1[C@]32OO4` [Compound 1, Artemisinin]: the IC50 is 0.005 to 0.007 µg/mL (≈ 0.0177 to 0.0248 µM) in the data set with P. falciparum (Plasmodium falciparum, varied between test occasions, based on parasitemia levels and clone, read-out: IC50 for the control, artemisinin); 5.08 ng/mL (≈ 0.018 µM) in data set [1]; 7.05 ng/mL (≈ 0.025 µM) in data set [2]. For the same molecule, the “Relative Activity W-2” value in data set [1] (setting [3]) was determined as 100. The “Relative Activity D-6” value in data set [2] (setting [3]) was found to be 100.

With `COC(C(=O)OC1CC2(C)OCC3(CCCCC13)OO2)(c1ccccc1)C(F)(F)F` [Compound 19b, (3S,5S,5aS,9aR)-3-methyloctahydro-1H-3,9a-epidioxybenzo[c]oxepin-5-yl(R)-3,3,3-trifluoro-2-methoxy-2-phenylpropanoate], the “Relative Activity W-2” value came out at 0.34 in data set [1] (setting [3]) and 0.34% in data set [1] (setting [4]). Besides, the “IC50 (ng/mL) W-2” value in data set [1] is 2255.40 ng/mL (≈ 5.24 µM). The “Relative Activity D-6” value in data set [2] (setting [3]) is recorded as 0.50; in data set [2] (setting [4]) it was 0.50%. For the same molecule, the “IC50 (ng/mL) D-6” value in data set [2] amounted to 2169.31 ng/mL (≈ 5.04 µM).

Turning to `CC12CC(OC(=O)c3ccccc3)C3CCCCC3(CO1)OO2` (stereo not shown) [Compound 10, 3-Methyloctahydro-1H-3,9a-epidioxybenzo[c]oxepin-5-yl benzoate], the melting point lay in the range of 100 to 102 °C. Further, the “Relative Activity W-2” value in data set [1] (setting [3]) is reported as 9.50. In addition, the IC50 in data set [1] was 121 ng/mL (≈ 0.38 µM). Also, the “Relative Activity D-6” value in data set [2] (setting [3]) is given as 10.40. For the same molecule, the IC50 in data set [2] worked out at 153 ng/mL (≈ 0.48 µM).

As to `COc1ccc(C(=O)OC2CC3(C)OCC4(CCCCC24)OO3)cc1` (stereo not shown) [Compound 12, 3-Methyloctahydro-1H-3,9a-epidioxybenzo[c]oxepin-5-yl 4-methoxybenzoate], the melting point was in the range of 155 to 157 °C. The “Relative Activity W-2” value in data set [1] (setting [3]) was 7.50. Also, the IC50 in data set [1] turned out to be 167 ng/mL (≈ 0.48 µM). Further, the “Relative Activity D-6” value in data set [2] (setting [3]) is 15.13. In addition, the IC50 in data set [2] stood at 115 ng/mL (≈ 0.33 µM).

Take `COC(C(=O)OC1CC2(C)OCC3(CCCCC13)OO2)(c1ccccc1)C(F)(F)F` [Compound 19a, (3R,5R,5aR,9aS)-3-methyloctahydro-1H-3,9a-epidioxybenzo[c]oxepin-5-yl(R)-3,3,3-trifluoro-2-methoxy-2-phenylpropanoate]: the “Relative Activity W-2” value in data set [1] (setting [3]) was found to be 2.17. In addition, the “IC50 (ng/mL) W-2” value in data set [1] amounted to 357.24 ng/mL (≈ 0.83 µM). Further, the “Relative Activity D-6” value in data set [2] (setting [3]) worked out at 7.13. Moreover, in data set [2], the “IC50 (ng/mL) D-6” value is listed as 150.64 ng/mL (≈ 0.35 µM).

With `CC12CC(OC(=O)c3ccc(Cl)cc3)C3CCCCC3(CO1)OO2` (stereo not shown) [Compound 14, 3-Methyloctahydro-1H-3,9a-epidioxybenzo[c]oxepin-5-yl 4-chlorobenzoate], the melting point lay within 110 to 112 °C. Also, in data set [1] (setting [3]), the “Relative Activity W-2” value was determined as 10.58. Besides, in data set [1], the IC50 was 120 ng/mL (≈ 0.34 µM). Further, the “Relative Activity D-6” value in data set [2] (setting [3]) was 12.18. Also, in data set [2], the IC50 stood at 145 ng/mL (≈ 0.41 µM).

For `C=C1CC2(C)OCC3(CCCCC13)OO2` (stereo not shown) [Compound 16], the “Relative Activity W-2” value in data set [1] (setting [3]) was determined as 2.18. Besides, the figures for the IC50 in data set [1] and in data set [2] were 346 ng/mL (≈ 1.65 µM) and 345 ng/mL (≈ 1.64 µM), respectively. In data set [2] (setting [3]), the “Relative Activity D-6” value came out at 3.05.

In turn, `CC(=O)OCC12CCCCC1C(O)CO2` (stereo not shown) [Compound 22, (3-Hydroxyhexahydrobenzofuran-7a(2H)-yl)methyl acetate] gave a melting point of 123 to 125 °C. Moreover, the “in vitro antimalarial activity (in words)” value in the data set on P. falciparum was “Neither 22 nor 29 possessed in vitro antimalarial activity; also recorded: no antimalarial activity”.

As for `CCCCC(=O)OC1CC2(C)OCC3(CCCCC13)OO2` (stereo not shown) [Compound 9, 3-Methyloctahydro-1H-3,9a-epidioxybenzo[c]oxepin-5-yl pentanoate], in data set [1] (setting [3]), the “Relative Activity W-2” value is recorded as 2.60. The IC50 turned out to be 209 ng/mL (≈ 0.7 µM) in data set [1] and 149 ng/mL (≈ 0.5 µM) in data set [2]. Further, the “Relative Activity D-6” value in data set [2] (setting [3]) was 5.00.
